# Experimental data: patent US11419335B2, “N-arylated analogues and uses thereof” (University of Florida Research Foundation, Incorporated, priority 2016, dated 2022)
# Where two headings read alike, the source gives them in different places. Marks after values point to notes of the source that are not given here.
# What was measured:
# [1] = test system: human red blood cells (hRBC); experiment: Hemolysis of red blood cells; type: cell-based
# Method: The washing was repeated three times with the buffer. In a 96-well plate, test compounds were added to the buffer from DMSO stocks. […] The plate was then incubated for 1 hour at 37° C. After incubation, the plate was centrifuged for 5 minutes at 3,500 rpm. Then 80 μL of the supernatant was transferred to another 96-well plate and the optical density (OD) was read at 405 nm. DMSO served as our negative control (0% hemolysis) while Triton X served as our positive control (100% hemolysis). […] All reported data correspond to three independent experiments. Ten-point dose-response curves were generated in 96-well plates to determine 50% hemolysis (HC50 values) of red blood cells.
# The washing was repeated three times with the buffer. In 96-well plate, the test compounds were added to the buffer. Then 50 μL of 2% of hRBCs in the buffer were added to the test plate to make the final concentrations ranging from 0.2 to 200 μM of each test compound. The plate was then incubated for 1 hour at 37° C. After incubation, the plate was centrifuged for 5 minutes at 3500 rpm and then 80 μL of the supernatant was transferred to another 96-well plate and the Optical Density (OD) was read at 405 nm. DMSO served as our negative control (0% haemolysis) and Triton X served as our positive control (100% haemolysis). The HC50 (concentration of test compound required to lyse red blood cells by 50%) was calculated by plotting the dose-response curve (not shown) with Graphpad Prism 6.0. All data were obtained from three independent haemolysis experiments.
# [2] = test system: vancomycin-resistant Enterococcus faecium (VRE strain ATCC 700221); experiment: MIC broth microdilution, VRE 700221; type: cell-based; conditions: for MIC E. faecium VRE 700221: Table 1A; for MIC VRE 700221: Table 4
# Method: (§1) The minimum inhibitory concentration (MIC) for each tested compound was determined by the broth microdilution method as recommended by the Clinical and Laboratory Standards Institute (CLSI). In a 96-well plate, eleven two-fold serial dilutions of each compound were made in a final volume of 100 μL Luria Broth. Each well was inoculated with ˜10^5 bacterial cells at the initial time of incubation, prepared from a fresh log phase culture (OD600 of 0.5 to 1.0 depending on bacterial strain). The MIC was defined as the lowest concentration of compound that prevented bacterial growth after incubating 16 to 18 hours at 37° C. (MIC values were supported by spectrophotometric readings at OD600). DMSO served as our vehicle and negative control in each microdilution MIC assay. DMSO was serially diluted with a top concentration of 1% v/v.
# as §1, with “for each compound was” for “for each tested compound was”, “Standards Institute (CLSI).^6 In a” for “Standards Institute (CLSI). In a”, “concentration of test compound that” for “concentration of compound that”, “37° C. The concentration range tested for each compound during this study was 0.10 to 100 μM. DMSO served” for “37° C. (MIC values were supported by spectrophotometric readings at OD600). DMSO served”, “1% v/v. All MIC values were obtained from a minimum of three independent experiments.” for “1% v/v.”
# [3] = test system: Acinetobacter baumannii (ATCC 1794); experiment: MIC broth microdilution, A. baumannii 1794; type: cell-based; conditions: for MIC A. baumannii 1794: Table 1A; for MIC A. bau. 1794: Table 4
# Method: as §1
# as §1, with “for each compound was” for “for each tested compound was”, “Standards Institute (CLSI).^6 In a” for “Standards Institute (CLSI). In a”, “concentration of test compound that” for “concentration of compound that”, “37° C. The concentration range tested for each compound during this study was 0.10 to 100 μM. DMSO served” for “37° C. (MIC values were supported by spectrophotometric readings at OD600). DMSO served”, “1% v/v. All MIC values were obtained from a minimum of three independent experiments.” for “1% v/v.”
# [4] = test system: methicillin-resistant Staphylococcus epidermidis (MRSE strain ATCC 35984); experiment: MIC broth microdilution, MRSE 35984; type: cell-based; conditions: for MIC S. epidermidis MRSE 35984: Table 1A; for MIC MRSE 35984: Table 4
# Method: as §1
# as §1, with “for each compound was” for “for each tested compound was”, “Standards Institute (CLSI).^6 In a” for “Standards Institute (CLSI). In a”, “concentration of test compound that” for “concentration of compound that”, “37° C. The concentration range tested for each compound during this study was 0.10 to 100 μM. DMSO served” for “37° C. (MIC values were supported by spectrophotometric readings at OD600). DMSO served”, “1% v/v. All MIC values were obtained from a minimum of three independent experiments.” for “1% v/v.”
# [5] = test system: Pseudomonas aeruginosa (PAO1); experiment: MIC broth microdilution, PAO1; type: cell-based
# Method: as §1
# as §1, with “for each compound was” for “for each tested compound was”, “Standards Institute (CLSI).^6 In a” for “Standards Institute (CLSI). In a”, “concentration of test compound that” for “concentration of compound that”, “37° C. The concentration range tested for each compound during this study was 0.10 to 100 μM. DMSO served” for “37° C. (MIC values were supported by spectrophotometric readings at OD600). DMSO served”, “1% v/v. All MIC values were obtained from a minimum of three independent experiments.” for “1% v/v.”
# [6] = test system: methicillin-resistant Staphylococcus aureus MRSA-2 (clinical isolate); experiment: MIC broth microdilution, MRSA-2; type: cell-based; conditions: for MIC: read-out: MIC MRSA-2
# Method: as §1
# as §1, with “for each compound was” for “for each tested compound was”, “Standards Institute (CLSI).^6 In a” for “Standards Institute (CLSI). In a”, “concentration of test compound that” for “concentration of compound that”, “37° C. The concentration range tested for each compound during this study was 0.10 to 100 μM. DMSO served” for “37° C. (MIC values were supported by spectrophotometric readings at OD600). DMSO served”, “1% v/v. All MIC values were obtained from a minimum of three independent experiments.” for “1% v/v.”
# [7] = test system: methicillin-sensitive Staphylococcus aureus ATCC 29213; experiment: MIC broth microdilution, S. aureus 29213; type: cell-based
# Method: as §1, with “The MIC was defined as the lowest concentration of compound that prevented bacterial growth after incubating 16 to 18 hours at 37° C.” left out
# (§2) Each well was inoculated with ˜10^5 bacterial cells at the initial time of incubation, prepared from a fresh log phase culture (OD600 of 0.5 to 1.0 depending on bacterial strain). […] The concentration range tested for each compound during this study was 0.10 to 100 μM. DMSO served as our vehicle and negative control in each microdilution MIC assay. DMSO was serially diluted with a top concentration of 1% v/v. All MIC values were obtained from a minimum of three independent experiments.
# MRSA BAA-1707 = experiment: MIC broth microdilution, MRSA BAA-1707; type: cell-based, Staphylococcus aureus; conditions: for MIC MRSA 1707: Table 4
# Method: as §1, with “The MIC was defined as the lowest concentration of compound that prevented bacterial growth after incubating 16 to 18 hours at 37° C.” left out
# as §2
SMILES,MIC E. faecium VRE 700221 [2],MIC A. baumannii 1794 ([3]; in µM),MIC S. epidermidis MRSE 35984 [4],MIC PAO1 ([5]; Table 1A) [µM],MIC MRSA-2 ([6]; Table 1A),MIC A. bau. 1794 [3],MIC PAO1 ([5]; Table 4) [µM],MIC MRSA-2 ([6]; Table 4),MIC VRE 700221 [2],MIC MRSE 35984 [4],also measured
CCCCCCCCCCCCCCCCn1cc[n+](Cc2ccccc2C[n+]2ccn(CCCCCCCCCCCCCCCC)c2C)c1C [AB-3-35],> 100 µM,>100,> 100 µM,> 100,> 100 µM,–,–,–,–,–,HC50 [1]: 34.5 µM
CCCCCCCCCCCCCCCCn1cc[n+](-c2ccc(C(F)(F)F)cc2)c1C.[Br-] [Compound 2],–,–,–,–,–,–,–,–,–,–,RBC HC50 [1]: 13.4 µM; hemolytic activity [1]: potent hemolytic activities
CCCCCCCCCCCCCCCCn1cc[n+](-c2ccc(Oc3ccccc3)cc2)c1C.[Br-] [Compound 5],–,–,–,–,–,37.5a micromolar,>100,4.69a micromolar,–,–,MIC S. aureus 29213 ([7]; Table 1B): 4.69^a μM; MIC S. aureus 29213 ([7]; Table 3): 4.69^a μM; MIC MRSA BAA-1707 (MRSA BAA-1707; Table 1B): 4.69^a μM; MIC MRSA BAA-1707 (MRSA BAA-1707; Table 3): 4.69^a μM; MIC MRSA 1707 (MRSA BAA-1707): 4.69a micromolar; MIC MRSA-2 ([6]; Table 1B): 4.69^a μM; MIC MRSA-2 ([6]; Table 3): 4.69^a μM
CCCCCCCCCCCCCCCCn1cc[n+](-c2ccc(OC(F)(F)F)cc2)c1C.[Br-] [Compound 7],–,–,–,–,–,18.8a micromolar,>100,3.13 µM,–,–,MIC S. aureus 29213 ([7]; Table 1B): 2.35^a μM; MIC S. aureus 29213 ([7]; Table 3): 2.35^a μM; MIC MRSA BAA-1707 (MRSA BAA-1707; Table 1B): 4.69^a μM; MIC MRSA BAA-1707 (MRSA BAA-1707; Table 3): 4.69^a μM; MIC MRSA 1707 (MRSA BAA-1707): 4.69a micromolar; MIC ([6]; Table 1B): 3.13 µM; MIC ([6]; Table 3): 3.13 µM
C=CC[n+]1ccn(CCCCCCCCCCCCCCCC)c1C.[Br-] [Compound 10],2.35^a,–,0.78 µM,> 100,2.35^a,9.38a micromolar,>100,2.35a micromolar,2.35a micromolar,0.78 µM,MIC A. baumannii 1794 [3]: 9.38^a
CCCCCCCCCCCCCCCCn1cc[n+](Cc2ccc(C(C)C)cc2)c1C.[Br-] [Compound 12],3.13 µM,>100,2.35^a,> 100,6.25 µM,>100 µM,>100,6.25 µM,3.13 µM,2.35a micromolar,–
CCCCCCCCCCCCCCCCn1cc[n+](Cc2ccc(C(C)(C)C)cc2)c1C.[Br-] [Compound 13],4.69^a,>100,9.38^a,> 100,12.5 µM,>100 µM,>100,12.5 µM,4.69a micromolar,9.38a micromolar,–
